#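 Grown in 96-well plates, cells were treated for 48 hours with each compound at five concentrations. Insufficient inhibition: endpoint recorded as highest concentration tested. GI50 = concentration required for 50% inhibition of growth. The concentration for full growth arrest is given as TGI.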
# Experiments:
# Experiment in all cases: NCI-60 cell line screen, 48 h
# HS 578T breast = tested on: HS 578T breast
# HOP-92 NSCLC = tested on: HOP-92 NSCLC
# MCF7 breast = tested on: MCF7 breast
# CAKI-1 renal = tested on: CAKI-1 renal
# NCI-H23 lung = tested on: NCI-H23 lung
# NCI-H226 lung = tested on: NCI-H226 lung
# A549 NSCLC = tested on: A549 NSCLC
# UO-31 renal = tested on: UO-31 renal
# UACC-257 melanoma = tested on: UACC-257 melanoma
# SF-295 CNS = tested on: SF-295 CNS
# COLO 205 colon = tested on: COLO 205 colon
# SK-MEL-5 melanoma = tested on: SK-MEL-5 melanoma
# HOP-62 NSCLC = tested on: HOP-62 NSCLC
# HCT-116 colon = tested on: HCT-116 colon
# K-562 leukemia = tested on: K-562 leukemia
# DU-145 prostate = tested on: DU-145 prostate
# SN12C renal = tested on: SN12C renal
# MDA-MB-231 breast = tested on: MDA-MB-231 breast
# SF-268 CNS = tested on: SF-268 CNS
# LOX IMVI melanoma = tested on: LOX IMVI melanoma
# M14 melanoma = tested on: M14 melanoma
# CCRF-CEM leukemia = tested on: CCRF-CEM leukemia
# KM12 colon = tested on: KM12 colon
# SNB-75 CNS = tested on: SNB-75 CNS
# ACHN renal = tested on: ACHN renal
# RXF 393 renal = tested on: RXF 393 renal
# A498 renal = tested on: A498 renal
# EKVX NSCLC = tested on: EKVX NSCLC
# UACC-62 melanoma = tested on: UACC-62 melanoma
# IGROV1 ovarian = tested on: IGROV1 ovarian
# OVCAR-4 ovarian = tested on: OVCAR-4 ovarian
# HCT-15 colon = tested on: HCT-15 colon
# NCI-H460 lung = tested on: NCI-H460 lung
# SR leukemia = tested on: SR leukemia
# RPMI-8226 leukemia = tested on: RPMI-8226 leukemia
# OVCAR-8 ovarian = tested on: OVCAR-8 ovarian
# U251 CNS = tested on: U251 CNS
# NCI-H522 lung = tested on: NCI-H522 lung
# MDA-MB-435 = tested on: MDA-MB-435
# T-47D breast = tested on: T-47D breast
# MOLT-4 leukemia = tested on: MOLT-4 leukemia
# SF-539 CNS = tested on: SF-539 CNS
# OVCAR-5 ovarian = tested on: OVCAR-5 ovarian
# PC-3 prostate = tested on: PC-3 prostate
# SNB-19 CNS = tested on: SNB-19 CNS
# SK-OV-3 ovarian = tested on: SK-OV-3 ovarian
# HCC-2998 colon = tested on: HCC-2998 colon
# 786-0 renal = tested on: 786-0 renal
# MALME-3M melanoma = tested on: MALME-3M melanoma
# SK-MEL-28 melanoma = tested on: SK-MEL-28 melanoma
# BT-549 breast = tested on: BT-549 breast
# HT29 colon = tested on: HT29 colon
# SK-MEL-2 melanoma = tested on: SK-MEL-2 melanoma
# SW-620 colon = tested on: SW-620 colon
# HL-60(TB) leukemia = tested on: HL-60(TB) leukemia
# OVCAR-3 ovarian = tested on: OVCAR-3 ovarian
# TK-10 renal = tested on: TK-10 renal
# NCI/ADR-RES ovarian = tested on: NCI/ADR-RES ovarian
structure (smiles),measurement,setting,value
CC1=NN(c2cccc(Cl)c2)C(=O)/C1=C\C=C\c1ccccc1,GI50,HS 578T breast,1.65 µM
same,TGI,HS 578T breast,9.61 µM
same,GI50,HOP-92 NSCLC,4.63 µM
same,TGI,HOP-92 NSCLC,43 µM
same,GI50,MCF7 breast,1.12 µM
same,TGI,MCF7 breast,18.8 µM
same,GI50,CAKI-1 renal,1.89 µM
same,TGI,CAKI-1 renal,4.49 µM
same,GI50,NCI-H23 lung,2.32 µM
same,TGI,NCI-H23 lung,6.13 µM
same,GI50,NCI-H226 lung,2.68 µM
same,TGI,NCI-H226 lung,7.62 µM
same,GI50,A549 NSCLC,16.4 µM
same,TGI,A549 NSCLC,> 100 µM
same,GI50,UO-31 renal,1.62 µM
same,TGI,UO-31 renal,3.49 µM
same,GI50,UACC-257 melanoma,2.13 µM
same,TGI,UACC-257 melanoma,7.26 µM
same,GI50,SF-295 CNS,3.17 µM
same,TGI,SF-295 CNS,67.8 µM
same,GI50,COLO 205 colon,2.36 µM
same,TGI,COLO 205 colon,4.94 µM
same,GI50,SK-MEL-5 melanoma,2.27 µM
same,TGI,SK-MEL-5 melanoma,5.76 µM
same,GI50,HOP-62 NSCLC,3.18 µM
same,TGI,HOP-62 NSCLC,11.1 µM
same,GI50,HCT-116 colon,1.56 µM
same,TGI,HCT-116 colon,3.09 µM
same,GI50,K-562 leukemia,2.88 µM
same,TGI,K-562 leukemia,> 100 µM
same,GI50,DU-145 prostate,2.91 µM
same,TGI,DU-145 prostate,12.1 µM
same,GI50,SN12C renal,2.44 µM
same,TGI,SN12C renal,7.53 µM
same,GI50,MDA-MB-231 breast,2.27 µM
same,TGI,MDA-MB-231 breast,7.47 µM
same,GI50,SF-268 CNS,2.36 µM
same,TGI,SF-268 CNS,6.91 µM
same,GI50,LOX IMVI melanoma,1.48 µM
same,TGI,LOX IMVI melanoma,3.15 µM
same,GI50,M14 melanoma,1.7 µM
same,TGI,M14 melanoma,3.57 µM
same,GI50,CCRF-CEM leukemia,3.14 µM
same,TGI,CCRF-CEM leukemia,> 100 µM
same,GI50,KM12 colon,1.64 µM
same,TGI,KM12 colon,3.1 µM
same,GI50,SNB-75 CNS,7.12 µM
same,TGI,SNB-75 CNS,> 100 µM
same,GI50,ACHN renal,1.79 µM
same,TGI,ACHN renal,3.34 µM
same,GI50,RXF 393 renal,2.12 µM
same,TGI,RXF 393 renal,3.92 µM
same,GI50,A498 renal,17.7 µM
same,TGI,A498 renal,> 100 µM
same,GI50,EKVX NSCLC,3.04 µM
same,TGI,EKVX NSCLC,> 100 µM
same,GI50,UACC-62 melanoma,1.76 µM
same,TGI,UACC-62 melanoma,3.87 µM
same,GI50,IGROV1 ovarian,1.67 µM
same,TGI,IGROV1 ovarian,4.23 µM
same,GI50,OVCAR-4 ovarian,3.37 µM
same,TGI,OVCAR-4 ovarian,> 100 µM
same,GI50,HCT-15 colon,2.27 µM
same,TGI,HCT-15 colon,5.68 µM
same,GI50,NCI-H460 lung,1.67 µM
same,TGI,NCI-H460 lung,3.28 µM
same,GI50,SR leukemia,2.36 µM
same,TGI,SR leukemia,> 100 µM
same,GI50,RPMI-8226 leukemia,2.91 µM
same,TGI,RPMI-8226 leukemia,14.3 µM
same,GI50,OVCAR-8 ovarian,2.63 µM
same,TGI,OVCAR-8 ovarian,9.44 µM
same,GI50,U251 CNS,1.78 µM
same,TGI,U251 CNS,4.42 µM
same,GI50,NCI-H522 lung,2.63 µM
same,TGI,NCI-H522 lung,6.84 µM
same,GI50,MDA-MB-435,2.5 µM
same,TGI,MDA-MB-435,7.37 µM
same,GI50,T-47D breast,2.29 µM
same,TGI,T-47D breast,39.5 µM
same,GI50,MOLT-4 leukemia,3.17 µM
same,TGI,MOLT-4 leukemia,> 100 µM
same,GI50,SF-539 CNS,2.5 µM
same,TGI,SF-539 CNS,6.12 µM
same,GI50,OVCAR-5 ovarian,2.81 µM
same,TGI,OVCAR-5 ovarian,7.83 µM
same,GI50,PC-3 prostate,2.93 µM
same,TGI,PC-3 prostate,> 100 µM
same,GI50,SNB-19 CNS,5.67 µM
same,TGI,SNB-19 CNS,> 100 µM
same,GI50,SK-OV-3 ovarian,3.21 µM
same,TGI,SK-OV-3 ovarian,9.93 µM
same,GI50,HCC-2998 colon,1.91 µM
same,TGI,HCC-2998 colon,3.45 µM
same,GI50,786-0 renal,2.16 µM
same,TGI,786-0 renal,4.65 µM
same,GI50,MALME-3M melanoma,2.76 µM
same,TGI,MALME-3M melanoma,9.19 µM
same,GI50,SK-MEL-28 melanoma,2.09 µM
same,TGI,SK-MEL-28 melanoma,4.3 µM
same,GI50,BT-549 breast,1.64 µM
same,TGI,BT-549 breast,3.17 µM
same,GI50,HT29 colon,2.98 µM
same,TGI,HT29 colon,7.4 µM
same,GI50,SK-MEL-2 melanoma,3.85 µM
same,TGI,SK-MEL-2 melanoma,16.7 µM
same,GI50,SW-620 colon,1.74 µM
same,TGI,SW-620 colon,3.44 µM
same,GI50,HL-60(TB) leukemia,3.14 µM
same,TGI,HL-60(TB) leukemia,> 100 µM
same,GI50,OVCAR-3 ovarian,2.18 µM
same,TGI,OVCAR-3 ovarian,4.4 µM
same,GI50,TK-10 renal,3.17 µM
same,TGI,TK-10 renal,9.05 µM
same,GI50,NCI/ADR-RES ovarian,3.4 µM
same,TGI,NCI/ADR-RES ovarian,> 100 µM

# Source: PubChem BioAssay (NCI)
